Data taken from the supplement of paper PMC8671470.

Key:
Experiment in all cases: area under dose-response curve (viability, 1 nM-10 uM) (fraction (0-1)); higher = more sensitive
Conditions in all cases: 72 h
HL-60 = tested on: HL-60
In short: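 Four-parameter log-logistic fits in drc and PharmacoGx supplied area under the curve where it is given. Underlying viability came from CellTiter-Glo, normalised to DMSO and proteasome-inhibitor wells, with the proteasome inhibitor at 10 μM. HL-60 cells in RPMI 1640 plus 10% FBS had been rescreened against the full library at five tenfold concentrations of 1–10,000 nM, in duplicate on 384-well plates, with DMSO or 100 nM of one of three metabolic inhibitors, for 72 h at 37 °C, 5% CO2.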

[1] = tested on: myeloid leukemia patient primary cells Pat.11
Method: (§1)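 AUC (0–1, higher = more sensitive) of the 5-point dose–response (1 nM–10 µM, 72 h, CellTiter-Glo) in primary AML/CML patient mononuclear cells. 0.030103 is the floor for inactive compounds.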

[2] = tested on: myeloid leukemia patient primary cells Pat.1
Method: as §1

[3] = tested on: myeloid leukemia patient primary cells Pat.3
Method: as §1

[4] = tested on: myeloid leukemia patient primary cells Pat.7
Method: as §1

[5] = tested on: myeloid leukemia patient primary cells Pat.5
Method: as §1

[6] = tested on: myeloid leukemia patient primary cells Pat.8
Method: as §1

[7] = tested on: myeloid leukemia patient primary cells Pat.14
Method: as §1

[8] = tested on: myeloid leukemia patient primary cells Pat.4
Method: as §1

[9] = tested on: myeloid leukemia patient primary cells Pat.2
Method: as §1

[10] = tested on: myeloid leukemia patient primary cells Pat.12
Method: as §1

[11] = tested on: myeloid leukemia patient primary cells Pat.6
Method: as §1

[12] = tested on: myeloid leukemia patient primary cells Pat.13
Method: as §1

[13] = tested on: myeloid leukemia patient primary cells Pat.9
Method: as §1

[14] = tested on: myeloid leukemia patient primary cells Pat.15
Method: as §1

[15] = tested on: myeloid leukemia patient primary cells Pat.10
Method: as §1

[16] = co-treatment: GSK2194069 100 nM
[17] = co-treatment: pictilisib 100 nM

Compound	area under dose-response curve (HL-60; co-treatment: AZD3965 100 nM)	area under dose-response curve (HL-60; co-treatment: DMSO vehicle)	area under dose-response curve (HL-60; [16])	area under dose-response curve (HL-60; [17])	area under dose-response curve [1]	area under dose-response curve [2]	area under dose-response curve [3]	area under dose-response curve [4]	area under dose-response curve [5]	area under dose-response curve [6]	area under dose-response curve [7]	area under dose-response curve [8]	area under dose-response curve [9]	area under dose-response curve [10]	area under dose-response curve [11]	area under dose-response curve [12]	area under dose-response curve [13]	area under dose-response curve [14]	area under dose-response curve [15]
Clc1ccc2c(c1Cl)CNCC2	< 0.0301	< 0.0301	< 0.0301	< 0.0301															
CC(C)Cc1sc(N)nc1-c1ccc(P(=O)(O)O)o1	< 0.0301	< 0.0301	< 0.0301	< 0.0301															
Cl.OC[C@H]1NC[C@@H](O)[C@@H](O)[C@@H]1O [1-Deoxymannojirimycin hydrochloride]	< 0.0301	< 0.0301	< 0.0301	< 0.0301															
CN(C)c1nc(O)c2[nH]cnc2n1 [2-Dimethylamino-6-hydroxypurine]	< 0.0301	< 0.0301	< 0.0301	< 0.0301															
O=C(O)c1cc2sccc2[nH]1 [4H-thieno[3,2-b]pyrrole-5-carboxylic acid]	< 0.0301	< 0.0301	< 0.0301	< 0.0301															
[N-]=[N+]=CC(=O)CC[C@H](N)C(=O)O [6-Diazo-5-oxo-L-norleucine]	< 0.0301	< 0.0301	< 0.0301	< 0.0301															
Sc1ncnc2nc[nH]c12 [6-mercaptopurine]	0.0762	0.0564	0.0946	0.0609	< 0.0301	< 0.0301	0.44	< 0.0301	0.588	< 0.0301	< 0.0301	< 0.0301	< 0.0301	< 0.0301	< 0.0301	< 0.0301	0.0529	< 0.0301	
O=C(O)CC[C@H](NC(=O)c1ccc([N+](=O)[O-])cc1)C(=O)O [(S)-2-(4-Nitrobenzamido)pentanedioic acid]	< 0.0301	< 0.0301	< 0.0301	< 0.0301															
O=C1Nc2ccccc2/C1=C\NCCc1ccc(O)c(O)c1 [AC1NZZMF]	< 0.0301	< 0.0301	< 0.0301	< 0.0301															
Cc1ccc(S(=O)(=O)NC2c3ccccc3Oc3ccccc32)cc1 [AH-7614]	< 0.0301	< 0.0301	< 0.0301	< 0.0301															
C[C@]12CC[C@H](O)CC1=CC[C@@H]1[C@@H]2CC[C@]2(C)C(c3cccnc3)=CC[C@@H]12 [Abiraterone]	< 0.0301	< 0.0301	< 0.0301	< 0.0301															
O=C(COc1ccc(C(=O)c2ccccc2)cc1)NC1CCN(Cc2ccccc2)CC1 [AdipoRon]	< 0.0301	< 0.0301	< 0.0301	< 0.0301															
CCOC(=O)[C@H]1O[C@@H]1C(=O)N[C@@H](CC(C)C)C(=O)NCCC(C)C [Aloxistatin]	< 0.0301	< 0.0301	< 0.0301	< 0.0301															
N[C@](CCCCB(O)O)(CCN1CCCCC1)C(=O)O [Arginase inhibitor 1]	0.0306	0.0367	0.0592																
Cc1noc2c1-c1ccccc1C(c1ccc(Cl)cc1)=N[C@H]2CC(N)=O [CPI-0610]	0.21	0.157	0.168	0.289	0.18	0.264	0.378	0.0768	0.74			0.423	0.192			0.191	0.34	0.423	0.458
Nc1ccn([C@@H]2O[C@H](CO)[C@@H](O)[C@@H]2O)c(=O)n1 [Cytarabine]	0.242	0.214	0.216	0.329	0.0784		0.647	0.418	0.85	0.0847	0.152	0.142	0.077	0.0325	0.0602	0.188	0.719	0.109	0.205
CCOc1ccc(Cc2cc([C@@H]3O[C@H](CO)[C@@H](O)[C@H](O)[C@H]3O)ccc2Cl)cc1 [Dapagliflozin]	< 0.0301	< 0.0301	< 0.0301	< 0.0301															
CCN(CC)CCN(Cc1ccc(-c2ccc(C(F)(F)F)cc2)cc1)C(=O)Cn1c(SCc2ccc(F)cc2)nc(=O)c2c1CCC2 [Darapladib]	0.144	0.14	0.167	0.134	0.137	0.111	0.211	0.502	0.947	0.117	0.241	0.123	0.143	0.134	0.137	0.154	0.625	0.124	0.104
O=C(O)C(Cl)Cl [Dichloroacetate]	< 0.0301	< 0.0301	< 0.0301	< 0.0301															
O=C1Oc2ccccc2C(=O)C1CC1C(=O)Oc2ccccc2C1=O (centres undefined) [Dicumarol]	< 0.0301	< 0.0301	< 0.0301	< 0.0301															
CC12CCC(O)CC1CCC1C2CCC2(C)C(C3=CC(=O)OC3)CCC12O (centres undefined) [Digitoxigenin]	0.372	0.376	0.386	0.374	0.279	0.388	0.601	< 0.0301	0.713	0.391	0.305	0.373	0.27	0.208	0.26	0.324	0.658	0.357	< 0.0301
O=c1c2ccccc2[se]n1-c1ccccc1 [Ebselen]	< 0.0301	< 0.0301	< 0.0301	< 0.0301															

Compound	area under dose-response curve (HL-60; co-treatment: AZD3965 100 nM)	area under dose-response curve (HL-60; co-treatment: DMSO vehicle)	area under dose-response curve (HL-60; [16])	area under dose-response curve (HL-60; [17])	area under dose-response curve [1]	area under dose-response curve [2]	area under dose-response curve [3]	area under dose-response curve [4]	area under dose-response curve [5]	area under dose-response curve [6]	area under dose-response curve [7]	area under dose-response curve [8]	area under dose-response curve [9]	area under dose-response curve [10]	area under dose-response curve [11]	area under dose-response curve [12]	area under dose-response curve [13]	area under dose-response curve [14]	area under dose-response curve [15]
Clc1ccc(COC(Cn2ccnc2)c2ccc(Cl)cc2Cl)cc1 (centres undefined) [Econazole]					< 0.0301	0.0311	0.173	0.202	0.499	< 0.0301	0.138	< 0.0301	< 0.0301	< 0.0301	0.0776		0.439	< 0.0301	0.277
C#Cc1cnc(O)nc1O [Eniluracil]	< 0.0301	< 0.0301	< 0.0301	< 0.0301															
CC(/C=C1\SC(=S)N(CC(=O)O)C1=O)=C\c1ccccc1 [Epalrestat]	< 0.0301	< 0.0301	< 0.0301	< 0.0301															
CCOC(=O)[C@@]1(CCCCCCOc2ccc(Cl)cc2)CO1 [Etomoxir]	< 0.0301	< 0.0301	< 0.0301	< 0.0301															
Cc1c(-c2ccccc2)oc2c(C(=O)OCCN3CCCCC3)cccc2c1=O.Cl [Flavoxate]	< 0.0301	< 0.0301	< 0.0301	< 0.0301															
O=C(O)CCc1ccc(NCc2cccc(Oc3ccccc3)c2)cc1 [GW9508]	< 0.0301	< 0.0301	< 0.0301	< 0.0301															
c1ccc2c(c1)OCC(=C1NCCN1)O2 [Idazoxan]	< 0.0301	< 0.0301	< 0.0301	< 0.0301															
O=C(O)c1nn(Cc2ccc(Cl)cc2Cl)c2ccccc12 [Lonidamine]	< 0.0301	< 0.0301	< 0.0301	< 0.0301															
C1CCc2nnc(C34CC5CC(CC(C5)C3)C4)n2CC1 [MERCK-544]	< 0.0301	< 0.0301	< 0.0301	< 0.0301															
CC(Cc1ccc(O)c(O)c1)C(C)Cc1ccc(O)c(O)c1 (centres undefined) [Masoprocol]	0.12	0.104	0.0826	0.142	< 0.0301	0.075	0.299	0.294	< 0.0301	0.186		0.119		0.0847	0.15	0.0768	0.3	0.111	< 0.0301
COc1c(C)c2c(c(O)c1C/C=C(\C)CCC(=O)O)C(=O)OC2 [Mycophenolic acid]	0.0599	< 0.0301	0.0302	0.0317	< 0.0301	< 0.0301	0.0922	< 0.0301	< 0.0301	0.0355	< 0.0301	0.0528	< 0.0301	< 0.0301	< 0.0301			< 0.0301	
C1CCC(C(CC2CCCCN2)C2CCCCC2)CC1.O=C(O)/C=C\C(=O)O (centres undefined) [Perhexiline]	0.133	0.125	0.16	0.198															
OCCN1CCN(CCCN2c3ccccc3Sc3ccc(Cl)cc32)CC1 [Perphenazine]	0.0332	< 0.0301	0.0329	< 0.0301															
C=CCc1ccc2c(c1O)C(=O)c1ccccc1C2=O [R162]	< 0.0301	< 0.0301	< 0.0301	< 0.0301															
O=C(c1ccc(OCCN2CCCCC2)cc1)c1c(-c2ccc(O)cc2)sc2cc(O)ccc12 [Raloxifene]	< 0.0301	< 0.0301	< 0.0301	< 0.0301															
NC(=O)c1ncn([C@@H]2O[C@H](CO)[C@@H](O)[C@H]2O)n1 [Ribavirin]	< 0.0301	< 0.0301	< 0.0301	< 0.0301															
Nc1ncnc2c1ncn2[C@@H]1O[C@H](CSCC[C@H](N)C(=O)O)[C@@H](O)[C@H]1O [S-Adenosyl Homocysteine]	< 0.0301	< 0.0301	< 0.0301	< 0.0301															
CCCc1nn(C)c2c(O)nc(-c3cc(S(=O)(=O)N4CCN(C)CC4)ccc3OCC)nc12 [Sildenafil]	< 0.0301	< 0.0301	< 0.0301	< 0.0301															
Cc1coc2c1C(=O)C(=O)c1c-2ccc2c(C)cccc12 [Tanshinone I]	< 0.0301	< 0.0301	< 0.0301	< 0.0301															
CCOC(=O)N1c2ccc(C(F)(F)F)cc2[C@@H](N(Cc2cc(C(F)(F)F)cc(C(F)(F)F)c2)C(=O)OC)C[C@H]1CC [Torcetrapib]	< 0.0301	< 0.0301	< 0.0301	< 0.0301	< 0.0301	< 0.0301	0.0719	0.197		< 0.0301	0.0394	< 0.0301	< 0.0301	< 0.0301	0.0345	0.0668	0.239	< 0.0301	0.212
Oc1cc(Cl)ccc1Oc1ccc(Cl)cc1Cl [Triclosan]	< 0.0301	< 0.0301	< 0.0301	< 0.0301															
